Results taken from patent publication US20200384072A1, “THERAPY OF IONIZING RADIATION-INDUCED DISORDERS” (SCK-CEN, priority 2019, published 2020).
“Also recorded” adds a separate entry of the source.

What was measured:
[1] = system: RBE4 cells; experiment: Irradiation-induced ATP release, RBE4 cells; assay type: cell-based, rat; conditions: broad-beam 1 Gy, 5 min post-irradiation, BAPTA-AM 10 μM, NALC 1 mM, c-PTIO 100 μM
Protocol: ATP was measured using a luciferin-luciferase assay kit (Sigma-Aldrich) in combination with a luminometer plate reader (Victor3 1420 multi label counter; Perkin Elmer, Zaventem, Belgium).
Extracellular ATP measurements were initially carried out at different time-points post-irradiation, the effect of blockers on ATP release was tested at the 5 min post-irradiation time-point (time of maximum ATP release).

[2] = system: RBE4 cells; experiment: γ-H2AX counts after local 3×3 mm X-ray irradiation (irradiated and bystander zones), RBE4 cells; assay type: cell-based, rat; conditions: 1 Gy, 3 h post-irradiation, Cbx 50 μM, Gap26 161 μM, TAT-Gap19 200 μM, Xestospongin C 5 μM
Protocol: (§1) A defined area of the cell culture dishes were exposed to X-rays (1Gy or 20 Gy) by using a small animal radiation research platform (SARRP, Xstrahl, 220 kV, 13 mA), making use of a 3×3 mm collimator. Whole dish irradiation was done using a 10×10 cm broad-beam collimator, while localized Irradiation was performed with a 3×3 mm collimator. A Gafchromic RTQA2 film, with a sensitivity of 0.02 Gy, was placed underneath the cell dishes in order to delineate the irradiated zone.
(§2) Cells were fixed for 25 min with 4% formaldehyde (VWR) and blocked for 30 min with blocking buffer (5% normal goat serum, 1% bovine serum albumin (BSA), 0.2% Triton X-100 in PBS D+). Overnight incubation with primary antibody (1/500 anti-γ-H2AX in dilution buffer, 1/10 blocking buffer in PBS D+) was followed by a 1 h incubation with 1/400 XX-biotin-goat-anti-mouse antibody in dilution buffer, followed by a 1 h incubation with 1/400 streptavidin-alexa488 in PBS D+. Nuclei were stained with 1 μg/mL DAPI in PBS D+ for 10 min and cells were kept in PBS D+ supplemented with NaN3 at 4° C. All steps except the overnight incubation which was carried out at 4° C., were carried out at room temperature and cell cultures were rinsed thoroughly with PBS D+ between all incubation steps. Imaging was performed with an automated BD Pathway 435 imaging system (10× objective, 10×10 montage resulting in an overall image size of 8.5×6.5 mm). We then quantified the number of γ-H2AX-foci positive nuclei in the directly irradiated and bystander areas and expressed the count as a percentage relative to the number of nuclei and subtracted the percentage of background γ-H2AX signal in non-irradiated paired control cultures for each experiment. For counting γ-H2AX foci, images were thresholded to remove background pixel noise below the foci level. Where applicable, results were normalized against vehicle (bar charts with a 100% vehicle bar without statistical variability or a horizontal line).

[3] = system: primary brain microvascular endothelial cells (pBMECs); experiment: γ-H2AX counts after local 3×3 mm X-ray irradiation (irradiated and bystander zones), pBMECs; assay type: cell-based, mouse; conditions: 1 Gy, 3 h post-irradiation
Protocol: Cortices, from 10-12 week old mice, were isolated by removing cerebellum, striatum, optic nerves, brain white matter, outer vessels and meninges. After homogenization with a Dounce homogenizer in WBB (Washing Buffer B: HMS, 10 mM Hepes, 0.35 g/L NaHCO3, 0.1% BSA), the homogenate was mixed with 30% dextran in WBB and centrifuged at 3000×g for 25 min at 4° C. The pellet containing the vascular component was then resuspended in WBB and filtered through a 60 μm NY60 Nylon Net Filter (Millipore, Darmstadt, Germany). Following centrifugation at 1000×g for 7 min at room temperature, the pellet was digested in collagenase/dispase supplement with DNase I (Roche Diagnostics, Vilvoorde, Belgium) and TLCK (Tosyl, Lysin chloromethyl ketone, sigma-aldrich) for 33 min at 37° C. in a shaking water bath. The digested capillary suspension was then seeded after multiple washing steps on wells coated with matrigel or glass coated with Corning Cell-Tak (VWR, Leuven, Belgium). For the isolation of intact capillaries the protocol was aborted just before the digestion step.
as §1, §2

[4] = system: RBE4 cells; experiment: γ-H2AX counts in electroporation-loaded bystander zone, RBE4 cells; assay type: cell-based, rat; conditions: BH4-Bcl-2 20 μM, BAPTA 60 μM, SOD 100 μg/mL (3 μM)
Protocol: as §2
Cells were grown to near confluency on 4-well plates coated with collagen. Cell monolayer cultures were washed three times with HBSS-Hepes 25 mM (pH 7.2-7.4) and subsequently three times with a low conductivity electroporation buffer (4.02 mM KH2PO4, 10.8 mM K2HPO4, 1.0 mM MgCl2, 300 mM sorbitol, 2.0 mM Hepes, pH 7.4). They were placed 400 μm underneath a two-wire Pt-Ir electrode on the microscopic stage and electroporated in the presence of a tiny amount of electroporation solution (10 μl) containing 100 μg/mL SOD, 60 μM BAPTA or 20 μM BH4-Bcl2 combined with 100 μM 10 kDa DTR. […]

[5] = system: RBE4 cells; experiment: Cytosolic Ca2+ imaging after medium transfer from irradiated to recipient RBE4 cells; assay type: cell-based, rat; conditions: for AUC of Ca2+ transients in recipient bystander cells: inhibitor added to the irradiated culture 30 min before irradiation, NALC 1 mM; for [Ca2+]i responses in recipient cells: inhibitor added to the recipient cells, PPADS 50 μM
Protocol: Cells were seeded on glass coverslips (18 mm 0) coated with 3.5 μg/cm^2 Corning cell-tak (VWR, Leuven, Belgium) and ester loaded for 45 min with 10 μM Fluo-3-AM in HBSS-HEPES supplemented with 1 mM of probenecid and 0.01% of pluronic F127 at room temperature followed by de-esterification over 15 min. Imaging was performed using an inverted fluorescence microscope equipped with a ×40 oil immersion objective and an EM-CCD camera (QuantEM™ 512SC CCD camera, Photometrics, Tucson, Ariz.). For direct Ca^2+ measurements the loaded cells were irradiated and transferred to the microscopy stage. For medium transfer, the loaded cells were superfused for 1 min with HBSS-Hepes (1 mM), followed by 4 min with HBSS-Hepes conditioned by irradiated cultures. Fluorescence intensity changes in the cells were analyzed with custom-developed FluoFrames software (L. Leybaert, Ghent, Belgium). Ca^2+ changes were quantified as the area under the curve (AUC) of the Ca^2+ traces.

[6] = system: RBE4 cells; experiment: Irradiation-induced propidium iodide dye uptake, RBE4 cells; assay type: cell-based, rat; conditions: 1 Gy, 5 min post-irradiation
Protocol: Cells were grown to near confluency in 4-well plates. Cultures were incubated with 1 mM propidium iodide (PI) and 200 μM 10 kDa dextran-FITC before focal irradiation and dye uptake was measured 5 min post-irradiation by measuring the fluorescence intensity of both dyes following image acquisition with a BD pathway 435 imaging system.

| Compound | irradiation-induced ATP release [1] | γ-H2AX counts in the bystander zone (normalized to vehicle) [2] | γ-H2AX counts in the irradiated zone (normalized to vehicle) [2] | γ-H2AX counts in the bystander zone (normalized to vehicle) [3] | γ-H2AX counts in the irradiated area (normalized to vehicle) [3] | also measured |
| --- | --- | --- | --- | --- | --- | --- |
| CC(=O)OCOC(=O)CN(CC(=O)OCOC(C)=O)c1ccccc1OCCOc1ccccc1N(CC(=O)OCOC(C)=O)CC(=O)OCOC(C)=O [BAPTA-AM, 1.2-bis-(2-aminophynoxy)-ethane-N,N,N′,N′,tetraacetic acid acetoxy methyl ester] | inhibited irradiation-induced ATP release; also recorded: significantly decreased ATP release | less clear responses | less clear responses | significantly reduced the γ-H2AX scores in both areas; also recorded: almost zero | significantly reduced the γ-H2AX scores in both areas | – |
| O=C([O-])CN(CC(=O)[O-])c1ccccc1OCCOc1ccccc1N(CC(=O)[O-])CC(=O)[O-].[K+].[K+].[K+].[K+] [BAPTA] | – | – | – | – | – | γ-H2AX scores in the electroporation-loaded bystander zone (normalized to vehicle) [4]: significantly decreased γ-H2AX counts; also recorded: strongly reduced the γ-H2AX scores |
| CC(=O)N[C@@H](CS)C(=O)O [NALC, N-acetyl-L-cystein] | inhibited irradiation-induced ATP release; also recorded: significantly decreased ATP release | less clear responses | less clear responses | significantly reduced the γ-H2AX scores in both areas; also recorded: almost zero | significantly reduced the γ-H2AX scores in both areas | AUC of Ca2+ transients in recipient bystander cells [5]: reduced the area under the curve (AUC) |
| Cc1nc(N=Nc2ccc(S(=O)(=O)O)cc2S(=O)(=O)O)c(COP(=O)(O)O)c(C=O)c1O [PPADS, Pyridoxalphosphate-6-azopehyl-2′,4′-disolfonic acid] | – | significantly reduced γ-H2AX scores | – | – | – | [Ca2+]i responses in recipient cells [5]: inhibited the [Ca^2]i responses |
| C1CCC[C@H]2CCCN3CC[C@@H](CCCCCC[C@@H]4CCCN5CC[C@@H](CC1)O[C@@H]45)O[C@@H]23 [Xestospongin C] | – | significantly reduced γ-H2AX counts in the bystander zone | – | – | – | – |
| CC1(C)N([O])C(c2ccc(C(=O)O)cc2)=[N+]([O-])C1(C)C [c-PTIO] | strongly reduced irradiation-induced ATP release | less clear responses | less clear responses | significantly reduced the γ-H2AX scores in both areas | significantly reduced the γ-H2AX scores in both areas | irradiation-induced ATP release ([1]; listed as C-PTIO): inhibited irradiation-induced ATP release; γ-H2AX counts in the bystander zone (normalized to vehicle) ([3]; listed as C-PTIO): almost zero |
| BH4-Bcl-2: IP3 receptor blocking peptide (amino acids 6-30 of Bcl-2; MW 3.6 kDa) (RTGYDNREIVMKYIHYKLSQRGYEW; UniProt P10415 6-30, looked up, fragment) | – | – | – | – | – | γ-H2AX scores in the electroporation-loaded bystander zone (normalized to vehicle) [4]: strongly reduced the γ-H2AX scores; γ-H2AX scores in the electroporation-loaded bystander zone (normalized to vehicle) ([4]; listed as BH4-Bcl2): significantly decreased γ-H2AX counts |
| Gap26: connexin mimetic peptide, amino acids 64-76 from the first extracellular loop of Cx43 (SEQ ID NO: 1) (VCYDKSFPISHVR; Synthetic peptide_Gap26) | inhibited | significantly inhibited | significantly inhibited | – | only had effect in the bystander zone | AUC of Ca2+ transients in recipient bystander cells [5]: reduced the area under the curve (AUC); [Ca2+]i responses in recipient cells [5]: inhibited the [Ca^2]i responses; PI uptake in the bystander area [6]: significantly reduced; also recorded: inhibited; PI uptake in the irradiated area [6]: significantly reduced; also recorded: inhibited |
